Test system: total bacteria (bacterial purine)
Test: In vitro microbe measurements: bacterial purine (total bacteria)
Format: cell-based, cattle
Conditions: alfalfa; monensin 6 ppm
Description: Proprionate is largely responsible for animal growth. […] There appears to be no effect on alfalfa protozoa and alfalfa bacterial purine by the beta acids. Again, reduction in protozoa and bacteria levels means more food and energy for animal growth.

SMILES: CC[C@@]1([C@@H]2O[C@@H]([C@H]3O[C@@](O)(CO)[C@H](C)C[C@@H]3C)C[C@@H]2C)CC[C@H]([C@]2(C)CC[C@]3(C[C@H](O)[C@@H](C)[C@@H]([C@@H](C)[C@@H](OC)[C@H](C)C(=O)O)O3)O2)O1 [monensin]
- elimination of protozoa and bacterial purines: most effectively eliminate
